Measured values as given in publication PMC2919064 (Journal of medicinal chemistry, 2010).
Where two headings read alike, the source gives them in different places. Values belong to the compound of their own block, whether it stands above or below them.

Experiments:
HDAC6 = target: T1, HDAC6 (Homo sapiens, UniProt Q9UBN7); assay: HDAC isoform inhibition assay
T1 sequence (Q9UBN7 1-1215): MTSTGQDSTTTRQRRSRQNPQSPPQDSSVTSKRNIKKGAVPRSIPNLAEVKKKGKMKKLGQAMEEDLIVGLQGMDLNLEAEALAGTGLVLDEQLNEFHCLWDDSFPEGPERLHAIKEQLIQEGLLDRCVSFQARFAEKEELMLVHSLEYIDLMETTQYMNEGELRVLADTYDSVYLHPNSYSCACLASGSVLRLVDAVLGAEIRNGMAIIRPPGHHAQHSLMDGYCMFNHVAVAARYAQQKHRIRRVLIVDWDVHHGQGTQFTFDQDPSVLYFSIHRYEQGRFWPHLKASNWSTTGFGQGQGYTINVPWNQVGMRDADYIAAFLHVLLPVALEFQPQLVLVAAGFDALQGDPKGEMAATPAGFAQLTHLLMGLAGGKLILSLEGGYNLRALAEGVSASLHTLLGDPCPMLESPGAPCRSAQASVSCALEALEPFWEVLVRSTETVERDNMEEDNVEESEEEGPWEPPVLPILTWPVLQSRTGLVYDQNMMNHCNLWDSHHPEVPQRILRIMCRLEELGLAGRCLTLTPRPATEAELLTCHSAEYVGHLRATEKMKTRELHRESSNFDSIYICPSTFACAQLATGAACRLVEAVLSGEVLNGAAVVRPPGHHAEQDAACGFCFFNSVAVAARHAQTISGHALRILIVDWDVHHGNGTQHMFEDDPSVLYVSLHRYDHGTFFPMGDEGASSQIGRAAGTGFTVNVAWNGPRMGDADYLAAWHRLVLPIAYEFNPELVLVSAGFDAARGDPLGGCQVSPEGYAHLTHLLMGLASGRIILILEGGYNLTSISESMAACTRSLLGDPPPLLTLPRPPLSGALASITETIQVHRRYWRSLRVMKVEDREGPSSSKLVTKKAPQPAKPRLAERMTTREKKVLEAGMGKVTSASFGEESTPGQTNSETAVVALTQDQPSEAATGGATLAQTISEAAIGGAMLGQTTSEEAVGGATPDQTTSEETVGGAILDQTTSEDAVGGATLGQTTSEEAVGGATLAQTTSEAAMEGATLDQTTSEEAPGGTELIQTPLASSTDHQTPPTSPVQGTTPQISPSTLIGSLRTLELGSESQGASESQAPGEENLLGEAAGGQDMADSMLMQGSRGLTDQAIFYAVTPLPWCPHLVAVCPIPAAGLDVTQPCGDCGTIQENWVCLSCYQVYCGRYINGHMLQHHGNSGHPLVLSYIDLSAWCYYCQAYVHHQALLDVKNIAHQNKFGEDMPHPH

Panc04.03 cells [1] = assay: MTS cell proliferation assay, pancreatic cancer cells; details: read-out: inhibition of pancreatic cancer cell lines IC50, Panc 04.03
SU86.86 cells = assay: as above; details: read-out: inhibition of pancreatic cancer cell lines IC50, SU 86.86
MiaPaca-2 cells = assay: as above; details: read-out: inhibition of pancreatic cancer cell lines IC50, Mia Paca-2
HupT3 cells = assay: as above; details: read-out: inhibition of pancreatic cancer cell lines IC50, Hup T3
HDAC1 = HDAC1 (Homo sapiens, UniProt Q13547); assay: HDAC isoform inhibition assay
BxPC-3 cells = assay: MTS cell proliferation assay, pancreatic cancer cells; details: read-out: inhibition of pancreatic cancer cell lines IC50, BxPC-3
HDAC3 = HDAC3 (Homo sapiens, UniProt O15379); assay: HDAC isoform inhibition assay
p21 in BXPC-3 cell line = assay: Immunoblot of CDK inhibitor p21 expression; format: cell-based; details: 5 µM for 18 h, vs vehicle (DMSO)
[2] = test system: SU86.86 and Panc04.03 xenografts; assay: Xenograft tumor model, SU86.86 and Panc04.03, immunoblot of tumor proteins; format: in vivo, mouse
Panc04.03 cells [3] = assay: Cell cycle analysis by flow cytometry; format: cell-based; details: 5 µM for 24 h, vs vehicle (DMSO)
HDAC2 = HDAC2 (Homo sapiens, UniProt Q92769); assay: HDAC isoform inhibition assay
HDAC8 = target: T2, HDAC8 (Homo sapiens, UniProt Q9BY41); assay: HDAC isoform inhibition assay
T2 sequence (Q9BY41 1-377): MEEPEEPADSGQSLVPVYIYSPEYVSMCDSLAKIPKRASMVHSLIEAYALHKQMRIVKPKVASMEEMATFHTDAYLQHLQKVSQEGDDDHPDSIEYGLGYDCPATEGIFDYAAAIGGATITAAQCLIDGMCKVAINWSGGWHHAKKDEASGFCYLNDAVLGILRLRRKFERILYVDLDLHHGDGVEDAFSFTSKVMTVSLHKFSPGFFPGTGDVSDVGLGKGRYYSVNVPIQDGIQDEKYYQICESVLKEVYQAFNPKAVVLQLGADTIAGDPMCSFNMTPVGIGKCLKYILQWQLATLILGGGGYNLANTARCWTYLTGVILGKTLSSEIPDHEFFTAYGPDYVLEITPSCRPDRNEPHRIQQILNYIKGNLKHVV

HDAC10 = target: T3, HDAC10 (Homo sapiens, UniProt Q969S8); assay: HDAC isoform inhibition assay
T3 sequence (Q969S8 1-669): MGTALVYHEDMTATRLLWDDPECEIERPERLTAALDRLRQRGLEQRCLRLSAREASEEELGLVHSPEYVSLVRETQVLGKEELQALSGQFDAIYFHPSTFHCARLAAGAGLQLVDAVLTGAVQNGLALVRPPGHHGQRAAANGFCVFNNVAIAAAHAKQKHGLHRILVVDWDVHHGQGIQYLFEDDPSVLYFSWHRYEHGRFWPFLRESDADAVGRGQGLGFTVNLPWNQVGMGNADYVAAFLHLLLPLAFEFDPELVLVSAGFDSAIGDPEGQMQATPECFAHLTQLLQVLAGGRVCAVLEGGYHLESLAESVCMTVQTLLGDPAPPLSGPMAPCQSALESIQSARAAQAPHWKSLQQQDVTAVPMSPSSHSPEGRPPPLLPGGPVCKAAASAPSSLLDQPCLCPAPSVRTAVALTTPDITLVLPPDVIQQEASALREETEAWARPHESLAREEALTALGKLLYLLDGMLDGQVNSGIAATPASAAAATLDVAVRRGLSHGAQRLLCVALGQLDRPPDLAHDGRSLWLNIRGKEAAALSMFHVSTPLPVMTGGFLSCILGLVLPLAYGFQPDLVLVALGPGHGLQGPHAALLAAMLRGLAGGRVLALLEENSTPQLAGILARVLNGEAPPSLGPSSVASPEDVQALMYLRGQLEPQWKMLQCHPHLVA

Chain of HDAC1 (Q13547 whole entry, canonical isoform): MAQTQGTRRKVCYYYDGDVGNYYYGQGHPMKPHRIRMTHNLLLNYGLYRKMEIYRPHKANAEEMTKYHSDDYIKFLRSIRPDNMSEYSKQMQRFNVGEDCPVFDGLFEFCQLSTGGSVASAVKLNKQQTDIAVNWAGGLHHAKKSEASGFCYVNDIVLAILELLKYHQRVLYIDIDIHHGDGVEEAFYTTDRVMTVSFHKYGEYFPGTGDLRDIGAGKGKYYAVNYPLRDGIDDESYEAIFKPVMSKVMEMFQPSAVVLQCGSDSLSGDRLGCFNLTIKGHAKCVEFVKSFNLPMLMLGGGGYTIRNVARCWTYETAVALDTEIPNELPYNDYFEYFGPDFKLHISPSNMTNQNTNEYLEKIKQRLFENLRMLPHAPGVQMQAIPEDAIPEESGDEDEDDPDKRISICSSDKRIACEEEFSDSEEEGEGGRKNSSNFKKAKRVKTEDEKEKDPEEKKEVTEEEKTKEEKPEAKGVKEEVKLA
Chain of HDAC3 (O15379 whole entry, canonical isoform): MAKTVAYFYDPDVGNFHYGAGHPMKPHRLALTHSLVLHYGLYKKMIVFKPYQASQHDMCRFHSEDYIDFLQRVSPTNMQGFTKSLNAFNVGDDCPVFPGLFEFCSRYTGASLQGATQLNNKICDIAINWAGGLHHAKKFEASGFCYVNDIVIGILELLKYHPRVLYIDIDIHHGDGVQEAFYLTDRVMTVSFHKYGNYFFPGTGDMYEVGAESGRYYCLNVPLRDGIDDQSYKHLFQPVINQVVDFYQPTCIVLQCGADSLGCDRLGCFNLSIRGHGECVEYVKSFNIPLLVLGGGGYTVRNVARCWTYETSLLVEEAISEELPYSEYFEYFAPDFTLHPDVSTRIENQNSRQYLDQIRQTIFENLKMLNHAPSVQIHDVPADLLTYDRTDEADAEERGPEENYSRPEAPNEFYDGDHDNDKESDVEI
Chain of HDAC3 (Q9Y618 395-489 partner limits assumed): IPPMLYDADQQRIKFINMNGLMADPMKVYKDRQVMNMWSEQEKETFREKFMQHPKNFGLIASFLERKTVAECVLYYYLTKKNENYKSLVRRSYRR
Chain of HDAC2 (Q92769 whole entry, canonical isoform): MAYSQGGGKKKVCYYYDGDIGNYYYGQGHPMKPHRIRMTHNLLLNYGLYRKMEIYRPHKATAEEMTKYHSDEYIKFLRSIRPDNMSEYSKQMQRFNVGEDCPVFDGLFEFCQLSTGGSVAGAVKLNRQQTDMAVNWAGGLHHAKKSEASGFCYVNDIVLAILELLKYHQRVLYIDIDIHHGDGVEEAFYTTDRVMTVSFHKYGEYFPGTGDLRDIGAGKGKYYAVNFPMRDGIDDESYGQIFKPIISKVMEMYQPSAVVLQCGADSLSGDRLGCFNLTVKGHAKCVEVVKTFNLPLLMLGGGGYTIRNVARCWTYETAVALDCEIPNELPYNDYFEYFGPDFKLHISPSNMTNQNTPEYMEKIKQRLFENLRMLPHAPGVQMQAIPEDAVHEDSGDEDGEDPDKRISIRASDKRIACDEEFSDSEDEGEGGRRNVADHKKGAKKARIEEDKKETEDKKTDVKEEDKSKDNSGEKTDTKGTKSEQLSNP

IC50 (HDAC6): 7.6 nM
IC50 (Panc04.03 cells [1]; Homo sapiens, Panc 04.03, 72 h): 1000 nM
IC50 (SU86.86 cells; Homo sapiens, SU.86.86, 72 h): 1000 nM
IC50 (MiaPaca-2 cells; Homo sapiens, MIA PaCa-2, 72 h): 200 nM
IC50 (HupT3 cells; Homo sapiens, HuP-T3, 72 h): 200 nM
IC50 (HDAC1): 3.04 nM
IC50 (BxPC-3 cells; Homo sapiens, BXPC-3, 72 h): 1000 nM
Compound: O=C(CCCCCCC(=O)Nc1cccc(-c2cn(-c3ccc(CO)cc3)nn2)c1)NO [4f, Octanedioic acid hydroxyamide {3-[1-(4-hydroxymethylphenyl)-1H-[1,2,3]triazol-4-yl]phenyl}amide]

IC50 (HDAC6): 3.85 nM
IC50 (Panc04.03 cells [1]; Homo sapiens, Panc 04.03, 72 h): 100 nM
IC50 (SU86.86 cells; Homo sapiens, SU.86.86, 72 h): 1000 nM
IC50 (MiaPaca-2 cells; Homo sapiens, MIA PaCa-2, 72 h): 100 nM
IC50 (HupT3 cells; Homo sapiens, HuP-T3, 72 h): 50 nM
IC50 (HDAC1): 5.06 nM
IC50 (HDAC3): 3.39 nM
IC50 (BxPC-3 cells; Homo sapiens, BXPC-3, 72 h): 200 nM
Compound: COc1ccc(-n2cc(-c3cccc(NC(=O)CCCCCCC(=O)NO)c3)nn2)cc1F [4h, Octanedioic acid {3-[1-(3-fluoro-4-methoxyphenyl)-1H-[1,2,3]-triazol-4-yl]phenyl}amide hydroxyamide]

IC50 (Panc04.03 cells [1]; Homo sapiens, Panc 04.03, 72 h): < 500 nM
Compound: O=C(CCCCCCC(=O)Nc1cccc(-c2cn(-c3ccccc3)nn2)c1)NO [compound 4a, octanedioic acid hydroxyamide[3-(1-phenyl-1H-[1,2,3]triazol-4-yl)phenyl]amide]
expression of p21 protein (p21 in BXPC-3 cell line): increased expression of p21
expression of CDK inhibitors p15, p16, p21, p27 and p57 in xenograft tumors ([2]; 10 and 100 mg/kg i.p. every 12 h for 48 h, athymic nude mice): re-activated
pancreatic cancer cell growth in vivo ([2]; pancreatic tumor cell line xenografts, preliminary in vivo evaluation): suppresses pancreatic cancer cell growth in vivo
effect on cell cycle profile (Panc04.03 cells [3]): loss of S-phase cells and an increase in the percentage of cells in G1

Further lines, the compound ahead of its results:

Compound: O=C(CCCCCCC(=O)Nc1ccccc1)NO [SAHA (1a), suberoylanilide hydroxamic acid, reference compound]
IC50 (HupT3 cells; Homo sapiens, HuP-T3, 72 h): 800 nM

Compound: O=C(CCCCCCC(=O)Nc1cccc(-c2cn(C3CCCCC3)nn2)c1)NO [compound 4j, Octanedioic acid [3-(1-cyclohexyl-1H-[1,2,3]triazol-4-yl)phenyl]amide hydroxyamide]
fold more potent than compound 4a, HDAC2 (HDAC2): 2- to 3 fold
fold more potent than compound 4a, HDAC6 (HDAC6; ratio of IC50 vs 4a): 2- to 3 fold
fold more potent than compound 4a, HDAC1 (HDAC1; ratio of IC50 vs 4a): 2- to 3 fold
fold more potent than compound 4a, HDAC8 (HDAC8; ratio of IC50 vs 4a): 2- to 3 fold
fold more potent than compound 4a, HDAC3 (HDAC3): 2- to 3 fold
fold more potent than compound 4a, HDAC10 (HDAC10; ratio of IC50 vs 4a): 2- to 3 fold

Compound: Octanedioic acid (2-aminophenyl)amide [3-(1-phenyl-1H-[1,2,3] triazol-4-yl)phenyl]amide [12a]
IC50 (HDAC6; read-out: IC50 HDAC6, tested at Nanosyn, 17 hours at 25 °C): > 30000 nM
IC50 (Panc04.03 cells [1]; 72 h post treatment): > 50000 nM
IC50 (SU86.86 cells; 72 h post treatment): 32000 nM
IC50 (MiaPaca-2 cells; 72 h post treatment): > 50000 nM
IC50 (HupT3 cells; 72 h post treatment): > 50000 nM
IC50 (HDAC8; read-out: IC50 HDAC8, tested at Nanosyn, 17 hours at 25 °C): > 30000 nM
IC50 (HDAC3; read-out: IC50 HDAC3): 122 ± 9 nM
IC50 (HDAC10; read-out: IC50 HDAC10, tested at Nanosyn, 17 hours at 25 °C): > 30000 nM
IC50 (BxPC-3 cells; 72 h post treatment): > 50000 nM
